Drawing on patent publication US20250276983A1, “COMPOUNDS AND METHODS FOR MODULATING HER2” (IAMBIC THERAPEUTICS, INC., priority 2022, published 2025), this text covers IC50 for eight compounds.

Common to all, as to format: cell-based
The test system of one experiment is BaF3_HER2YVMA cells. As to the kind of experiment: Cell growth inhibition assay, BaF3_HER2YVMA. To be noted: 72 h, BaF3_HER2YVMA cells, 3 days treatment, CellTiterGlo 2.0; read-out: HER2-YVMA IC50 (nM), cell growth inhibition. (In ATP-based viability assays light output follows the ATP content of the culture.)
The test system of another experiment is BaF3_HER2WT cells. As to the kind of experiment: Cell growth inhibition assay, BaF3_HER2WT. To be noted: 72 h, 3 days treatment, CellTiterGlo 2.0, read-out: HER2 WT IC50 (nM), cell growth inhibition.
The next experiment concerns BaF3_EGFRWT cells. Briefly: Cell growth inhibition assay, BaF3_EGFRWT. The settings on record: 72 h, 80 ng/mL recombinant human EGF, 3 days treatment, CellTiterGlo 2.0, read-out: EGFR WT IC50 (nM), cell growth inhibition.

The term IC50 denotes the concentration at which inhibition is half-maximal. Take `Cc1cc(Nc2ncnn3ccc(C4CCN(C(=O)/C=C/CO)CC4)c23)ccc1Oc1ccn2ncnc2c1` [Example 154, (E)-1-(4-(4-((4-([1,2,4]triazolo[1,5-a]pyridin-7-yloxy)-3-methylphenyl)amino)pyrrolo[2,1-f][1,2,4]triazin-5-yl)piperidin-1-yl)-4-hydroxybut-2-en-1-one]: the IC50 with BaF3_HER2YVMA cells was < 200 nM; in the experiment on BaF3_HER2WT cells it was < 200 nM; in the experiment on BaF3_EGFRWT cells it was 1500 to 5000 nM.

For `COC1CCN(C/C=C/C(=O)N2CC(c3ccn4ncnc(Nc5ccc(Oc6ccn7ncnc7c6)c(C)c5)c34)C2)C1` (stereo not drawn) [Example 41, (E)-1-(3-(4-((4-([1,2,4]triazolo[1,5-a]pyridin-7-yloxy)-3-methylphenyl)amino)pyrrolo[2,1-f][1,2,4]triazin-5-yl)azetidin-1-yl)-4-(3-methoxypyrrolidin-1-yl)but-2-en-1-one], the results for the IC50 in the experiment on BaF3_HER2YVMA cells, with BaF3_HER2WT cells and in the experiment with BaF3_EGFRWT cells were < 200 nM, < 200 nM and 1500 to 5000 nM, respectively.

As for `COC/C=C/C(=O)N1CC(c2ccn3ncnc(Nc4ccc(Oc5ccn6ncnc6c5)c(C)c4)c23)C1` [Example 40, (E)-1-(3-(4-((4-([1,2,4]triazolo[1,5-a]pyridin-7-yloxy)-3-methylphenyl)amino)pyrrolo[2,1-f][1,2,4]triazin-5-yl)azetidin-1-yl)-4-methoxybut-2-en-1-one], the IC50 fell in the range of 200 to 500 nM in the experiment with BaF3_HER2YVMA cells, 200 to 500 nM with BaF3_HER2WT cells and 1500 to 5000 nM in the experiment on BaF3_EGFRWT cells.

On to `Cc1cc(Nc2ccn3ncnc(C4CC5CCC(C4)N5C(=O)/C=C/CN(C)C)c23)ccc1Oc1ccn2cnnc2c1` (stereo not drawn) [Example 33, (E)-1-(3-(5-((4-([1,2,4]triazolo[4,3-a]pyridin-7-yloxy)-3-methylphenyl)amino)pyrrolo[2,1-f][1,2,4]triazin-4-yl)-8-azabicyclo[3.2.1]octan-8-yl)-4-(dimethylamino)but-2-en-1-one acetate], for which the IC50 is 200 to 500 nM with BaF3_HER2YVMA cells, < 200 nM in the experiment with BaF3_HER2WT cells and 1500 to 5000 nM in the experiment with BaF3_EGFRWT cells.

Turning to `C=CC(=O)N1CC=C(c2ccn3ncnc(Nc4ccc(Oc5ccn6ncnc6c5)c(C)c4)c23)C1` [Example 28, 1-(3-(4-((4-([1,2,4]triazolo[1,5-a]pyridin-7-yloxy)-3-methylphenyl)amino)pyrrolo[2,1-f][1,2,4]triazin-5-yl)-2,5-dihydro-1H-pyrrol-1-yl)prop-2-en-1-one acetate], the IC50 in the experiment with BaF3_HER2YVMA cells is 500 to 1500 nM; in the experiment with BaF3_HER2WT cells it was < 200 nM; in the experiment with BaF3_EGFRWT cells, 1500 to 5000 nM.

With `Cc1cc(Nc2ncnn3ccc([C@@H]4CCCN(C(=O)[C@H](F)Cl)CC4)c23)ccc1Oc1ccn2ncnc2c1` (single isomer, unassigned) [Examples 145, 146, 147 and 148, fourth eluting isomer], the IC50 lay in the range of 500 to 1500 nM in the experiment on BaF3_HER2YVMA cells, 200 to 500 nM in the experiment on BaF3_HER2WT cells and 1500 to 5000 nM with BaF3_EGFRWT cells.

In the case of `Cc1cc(Nc2ncnn3ccc(C4CCN(C(=O)/C=C/CN(C)C)CC4(F)F)c23)ccc1Oc1ccn2ncnc2c1` (stereo not drawn) [Example 176, (E)-1-(4-(4-((4-([1,2,4]triazolo[1,5-a]pyridin-7-yloxy)-3-methylphenyl)amino)pyrrolo[2,1-f][1,2,4]triazin-5-yl)-3,3-difluoropiperidin-1-yl)-4-(dimethylamino)but-2-en-1-one], the IC50 with BaF3_HER2YVMA cells was < 200 nM; with BaF3_HER2WT cells, < 200 nM; in the experiment on BaF3_EGFRWT cells, 1500 to 5000 nM.

For `Cc1cc(Nc2ncnn3ccc(C4(O)CCN(C(=O)/C=C/CN(C)C)CC4)c23)ccc1Oc1ccn2ncnc2c1` [Example 50, (E)-1-(4-(4-((4-([1,2,4]triazolo[1,5-a]pyridin-7-yloxy)-3-methylphenyl)amino)pyrrolo[2,1-f][1,2,4]triazin-5-yl)-4-hydroxypiperidin-1-yl)-4-(dimethylamino)but-2-en-1-one], the IC50 lay in the range of 500 to 1500 nM in the experiment on BaF3_HER2YVMA cells, 200 to 500 nM in the experiment on BaF3_HER2WT cells and 1500 to 5000 nM in the experiment on BaF3_EGFRWT cells.
